Experimental data: ChEMBL document CHEMBL1949607, “p-Terphenyl and diterpenoid metabolites from endophytic Aspergillus sp. YXf3” (J Nat Prod, 2012)
pIC50: −log10 of the molar value.

Assay: Inhibition of viral neuraminidase after 20 mins by fluorescence assay

With `COc1cc(-c2ccccc2)c(OC)c(O)c1-c1ccc(O)c(O)c1` as the compound, how does the pIC50 read?
Its pIC50 is less than 4.52.

With `COc1cc(-c2ccc(O)cc2)c(OC)c(O)c1-c1ccc(O)c(O)c1` as the compound, how does the pIC50 read?
Its pIC50 is 5.04.

With `COc1c(-c2ccc(O)cc2)cc(O)c(-c2ccc(O)cc2)c1O` as the compound, how does the pIC50 read?
Its pIC50 is less than 4.52.

With `COc1c(-c2ccccc2)cc(O)c(-c2ccc(O)cc2)c1O` as the compound, how does the pIC50 read?
Its pIC50 is less than 4.52.

With `COc1c(-c2ccccc2)cc(OC)c2c1oc1cc(O)c(O)cc12` as the compound, how does the pIC50 read?
Its pIC50 is 5.04.

With `COc1cc2oc3c(OC)c(-c4ccc(O)cc4)cc(OC)c3c2cc1OC` as the compound, how does the pIC50 read?
Its pIC50 is less than 4.52.

With `COc1cc(-c2ccccc2)c(OC)c(O)c1-c1ccc(O)cc1` as the compound, how does the pIC50 read?
Its pIC50 is 5.36.

With `CO[C@]12OC[C@@H](O)c3c(C)ccc(c31)C1=C(C2=O)C(C)(C)CCC1` (racemic) as the compound, how does the pIC50 read?
Its pIC50 is less than 4.52.

With `CO[C@@H]1CO[C@]2(OC)C(=O)C3=C(CCCC3(C)C)c3ccc(C)c1c32` (racemic) as the compound, how does the pIC50 read?
Its pIC50 is less than 4.52.

With `C=C[C@@]1(C)CC[C@H]2C(=C[C@H](O)[C@H]3C(C)(C)CC[C@@H](O)[C@]23C)[C@H]1O` (relative stereo) as the compound, how does the pIC50 read?
Its pIC50 is less than 4.52.

With `C=Cc1c(C)ccc2c1C(=O)[C@H](O)[C@H]1C(C)(C)CC[C@@H](O)[C@]21C` [ASPERGILOID C] as the compound, how does the pIC50 read?
The pIC50 was less than 4.52.

With `COc1c(-c2ccc(O)cc2)cc(OC)c2c1oc1cc(O)c(O)cc12` [CANDIDUSIN A] as the compound, how does the pIC50 read?
Its pIC50 is less than 4.52.

With `COc1ccc(-c2cc(OC)c3c(oc4cc(O)c(O)cc43)c2OC)cc1` [CANDIDUSIN C] as the compound, how does the pIC50 read?
The pIC50 was less than 4.52.

With `CCOC(=O)C1=C[C@@H](OC(CC)CC)[C@H](NC(C)=O)[C@@H](N)C1` [OSELTAMIVIR] as the compound, how does the pIC50 read?
The pIC50 was 6.85.

With `COc1cc(-c2ccc(O)cc2)c(OC)c(O)c1C1=CC(=O)OC1CC(=O)O` (stereo unspecified) [TERPHENOLIDE] as the compound, how does the pIC50 read?
Its pIC50 is 5.24.

With `COc1cc(-c2ccc(O)cc2)c(OC)c(O)c1-c1ccc(O)cc1` [TERPHENYLLIN] as the compound, how does the pIC50 read?
The pIC50 was less than 4.52.
